The values that follow come from the NIST ThermoML archive (doi:10.1016/j.fluid.2008.09.026).

The conditions of the data set: Liquid, Ebulliometric method (Recirculating still).

SMILES strings stand for the structures. Numbers after ± are expanded uncertainties.

As usually defined, the vapor or sublimation pressure is the pressure of vapour in equilibrium with the condensed phase. As to `CC(C)OCCO` [2-isopropoxyethanol], the “vapor or sublimation pressure” value by setting is: (398.12 K) 60 ± 0.1 kPa; (407.13 K) 80 ± 0.1 kPa; (414.21 K) 100 ± 0.1 kPa.
With `CCCCCCC` [heptane], the “vapor or sublimation pressure” value by setting is: (354.72 K) 60 ± 0.1 kPa; (363.74 K) 80 ± 1 kPa; (371.2 K) 100 ± 0.1 kPa.
Regarding `CCCCCC` [hexane], the “vapor or sublimation pressure” value is, setting by setting: (326.11 K) 60 ± 0.1 kPa; (334.61 K) 80 ± 0.1 kPa; (341.48 K) 100 ± 0.1 kPa.
